For data set [1] the following is noted: RP-HPLC used as measure of hydrophobicity; 4.6 mm × 250 mm Venusil MP C18-5 column, 220 nm, linear acetonitrile gradient 15% to 45% in 30 min, 0.1% trifluoroacetic acid, 1 mL/min. An excerpt:
In this experiment, cyclic, linear and D-proline antimicrobial peptides were designed based on the IR-rich template sequence (IR)nP(IR)nP (n = 1, 2 and 3). […] The […] molecular weights of the peptides were identified using mass spectrometry. […] The hydrophobicity of the peptides in solution is dependably mirrored by the HPLC retention times.

A further data set relates to E. coli UB1005. The experiment in a line: Outer membrane permeability assay (NPN uptake). Format: cell-based. The conditions noted are these: E. coli UB1005, concentrations greater than 4 μM; relative to 10 μg/mL polymyxin B. The procedure:
Figure 4 Outer membrane permeabilization assays of the engineered peptides. A 2 mL volume of E. coli UB1005 cells, diluted to 10^5 CFU/mL in 5 mM sodium HEPES buffer, was added to a quartz cuvette containing NPN to give a final concentration of 10 μM. Aliquots of peptides were added to the cuvette, and the fluorescence was recorded until there was no further increase in fluorescence. Data shown are three independent experiments.
The effect of antimicrobial peptides on the outer leaflet of the cell membrane was examined using the extracellular membrane-sensitive fluorescent dye NPN and the antibiotic-sensitive mutant E. coli UB 1005. […] The background fluorescence was measured (excitation λ = 350 nm, emission λ = 420 nm) with an F-4500 fluorescence spectrophotometer (Hitachi, Tokyo, Japan). […] The fluorescence was recorded in terms of the time needed until there was no further increase in fluorescence after mixing several concentrations (0.5–64 μM) of peptides. […] Values were converted to percent NPN uptake using the following equation:(3) %NPN uptake=Fobs−F0/F100−F0× 100% where Fobs is the observed fluorescence at a given peptide concentration, F0 is the initial fluorescence of NPN in E. coli UB1005 cells and F100 is the fluorescence of NPN in UB1005 cells upon the addition of 10 μg/mL polymyxin B, which had strong outer membrane permeability.

Molecules are shown by their SMILES. Where a SMILES comes first, the peptide text is derived from it.

In the case of `CC[C@H](C)[C@@H]1NC(=O)[C@H](CCCNC(=N)N)NC(=O)[C@H]([C@@H](C)CC)NC(=O)[C@@H]2CCCN2C(=O)[C@H](CCCNC(=N)N)NC(=O)[C@H]([C@@H](C)CC)NC(=O)[C@H](CCCNC(=N)N)NC(=O)[C@H]([C@@H](C)CC)NC(=O)[C@H](CCCNC(=N)N)NC(=O)[C@H]([C@@H](C)CC)NC(=O)[C@@H]2CCCN2C(=O)[C@H](CCCNC(=N)N)NC(=O)[C@H]([C@@H](C)CC)NC(=O)[C@H](CCCNC(=N)N)NC1=O` [OIR3] (cyclo(IRIRIRPIRIRIRP)), in data set [1], the “RT (retention time)” value came out at 12.64 min. The “outer membrane permeability (% NPN uptake)” value with E. coli UB1005 was “more than 70%”.

For the origin of these results see paper PMC6928678, “Simplified Head-to-Tail Cyclic Polypeptides as Biomaterial-Associated Antimicrobials with Endotoxin Neutralizing and Anti-Inflammatory Capabilities” (International Journal of Molecular Sciences, 2019).
